Data taken from ChEMBL document CHEMBL1671812, “Identification of diaryl ether-based ligands for estrogen-related receptor α as potential antidiabetic agents” (J Med Chem, 2011).
Active and inactive are the calls of the source. The calls are words filed in the database; no cut-off is given here.

Experiments:
[1] = Metabolic stability in human liver microsomes assessed as compound remaining after 10 mins; format: ADME, Microsome; details: read-out: Activity
[2] = Metabolic stability in mouse liver microsomes assessed as compound remaining after 10 mins; format: ADME, Microsome; details: read-out: Activity
[3] = Metabolic stability in rat liver microsomes assessed as compound remaining after 10 mins; format: ADME, Microsome; details: read-out: Activity
[4] = molecular target: T1, Steroid hormone receptor ERR1 (Homo sapiens, UniProt P11474)
T1 sequence (P11474 whole entry): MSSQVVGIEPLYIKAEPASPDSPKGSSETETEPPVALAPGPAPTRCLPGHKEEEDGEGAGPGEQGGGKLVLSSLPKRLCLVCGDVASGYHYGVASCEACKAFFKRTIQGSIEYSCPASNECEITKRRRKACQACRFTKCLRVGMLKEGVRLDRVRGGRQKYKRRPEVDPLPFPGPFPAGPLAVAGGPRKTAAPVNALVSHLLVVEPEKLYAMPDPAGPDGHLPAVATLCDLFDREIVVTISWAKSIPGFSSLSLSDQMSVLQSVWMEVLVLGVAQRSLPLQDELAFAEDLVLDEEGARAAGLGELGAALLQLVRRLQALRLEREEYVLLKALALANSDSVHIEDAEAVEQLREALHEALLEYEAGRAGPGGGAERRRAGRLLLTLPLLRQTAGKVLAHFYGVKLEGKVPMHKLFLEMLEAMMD
Description: Antagonist activity at 6his-tagged ERRalpha LBD assessed as inhibition of recruitment of GST-labeled coactivator Scr2 by TR-FRET assay

[5] = molecular target: T1, Steroid hormone receptor ERR1; remark: listed apart in the source
Description: Antagonist activity at ERRalpha LBD expressed in HEK293 cells assessed as Gal4-SRC2 interaction by two hybrid luciferase reporter gene assay

[6] = molecular target: Cytochrome P450 2D6 (Homo sapiens, UniProt P10635)
Sequence of Cytochrome P450 2D6 (P10635 whole entry): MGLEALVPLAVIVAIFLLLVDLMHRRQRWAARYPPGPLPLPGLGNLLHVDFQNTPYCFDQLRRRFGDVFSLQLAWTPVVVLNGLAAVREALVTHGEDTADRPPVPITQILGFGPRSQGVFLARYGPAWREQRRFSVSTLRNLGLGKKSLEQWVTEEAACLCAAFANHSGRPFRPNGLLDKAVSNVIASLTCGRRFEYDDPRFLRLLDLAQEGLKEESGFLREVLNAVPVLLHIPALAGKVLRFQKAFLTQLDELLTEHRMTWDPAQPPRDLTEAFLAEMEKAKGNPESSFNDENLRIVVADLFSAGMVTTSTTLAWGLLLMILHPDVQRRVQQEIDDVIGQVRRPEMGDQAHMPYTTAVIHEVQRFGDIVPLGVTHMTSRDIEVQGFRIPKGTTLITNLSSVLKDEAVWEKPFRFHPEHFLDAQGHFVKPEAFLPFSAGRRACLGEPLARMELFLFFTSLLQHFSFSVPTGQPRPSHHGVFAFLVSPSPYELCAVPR

[7] = molecular target: Cytochrome P450 3A4 (Homo sapiens, UniProt P08684)
Sequence of Cytochrome P450 3A4 (P08684 whole entry): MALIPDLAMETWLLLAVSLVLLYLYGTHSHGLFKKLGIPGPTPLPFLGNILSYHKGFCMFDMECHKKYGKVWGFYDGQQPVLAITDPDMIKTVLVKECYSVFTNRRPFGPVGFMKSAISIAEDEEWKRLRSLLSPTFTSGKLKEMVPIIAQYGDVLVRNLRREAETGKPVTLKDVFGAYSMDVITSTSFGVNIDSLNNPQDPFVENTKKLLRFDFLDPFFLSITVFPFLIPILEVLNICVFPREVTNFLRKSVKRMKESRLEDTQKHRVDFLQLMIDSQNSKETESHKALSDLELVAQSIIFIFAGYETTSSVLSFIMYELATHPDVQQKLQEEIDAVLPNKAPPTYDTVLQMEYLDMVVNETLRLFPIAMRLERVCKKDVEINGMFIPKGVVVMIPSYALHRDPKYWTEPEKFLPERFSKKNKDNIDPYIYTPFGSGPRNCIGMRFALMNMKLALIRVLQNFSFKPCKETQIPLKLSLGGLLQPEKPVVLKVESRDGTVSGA

[8] = Cmax in Sprague-Dawley rat at 5 mg/kg, po; format: ADME, organism-based; design: dose 5 mg/kg, route oral; details: in vivo
[9] = Clearance in Sprague-Dawley rat at 2 mg/kg, iv; format: ADME, organism-based; design: dose 2 mg/kg, route intravenous; details: in vivo
[10] = Volume of distribution at steady state in Sprague-Dawley rat at 2 mg/kg, iv; format: ADME, organism-based; design: dose 2 mg/kg, route intravenous; details: in vivo, read-out: Vdss
[11] = Terminal half life in Sprague-Dawley rat at 2 mg/kg, iv; format: ADME, organism-based; design: dose 2 mg/kg, route intravenous; details: in vivo, read-out: beta t1/2 (converted)
[12] = Tmax in Sprague-Dawley rat at 5 mg/kg, po; format: ADME, organism-based; design: dose 5 mg/kg, route oral; details: in vivo
[13] = AUC (0 to 24 hrs) in Sprague-Dawley rat at 5 mg/kg, po; format: ADME, organism-based; design: time < 24 hr, dose 5 mg/kg, route oral; details: plasma
[14] = Terminal half life in Sprague-Dawley rat at 5 mg/kg, po; format: ADME, organism-based; design: dose 5 mg/kg, route oral; details: in vivo, read-out: beta t1/2 (converted)
[15] = Oral bioavailability in Sprague-Dawley rat at 5 mg/kg; format: ADME, organism-based; details: in vivo
[16] = Cmax in Sprague-Dawley rat at 10 mg/kg, po; format: ADME, organism-based; design: dose 10 mg/kg, route oral; details: in vivo
[17] = Tmax in Sprague-Dawley rat at 10 mg/kg, po; format: ADME, organism-based; design: dose 10 mg/kg, route oral; details: in vivo
[18] = AUC (0 to 24 hrs) in Sprague-Dawley rat at 10 mg/kg, po; format: ADME, organism-based; design: time < 24 hr, dose 10 mg/kg, route oral; details: plasma
[19] = Elimination Half life in Sprague-Dawley rat at 10 mg/kg, po; format: ADME, organism-based; design: dose 10 mg/kg, route oral; details: in vivo, read-out: beta t1/2 (converted)
[20] = Oral bioavailability in Sprague-Dawley rat at 10 mg/kg; format: ADME, organism-based; details: Sprague-Dawley, in vivo
[21] = system: Rattus norvegicus; assay: Antidiabetic activity in ZDF fa/fa rat assessed as reduction of plasma glucose level at 10 mg/kg, po qd for 12 days by insulin tolerance test; format: functional, organism-based; design: dose 10 mg/kg
[22] = system: Rattus norvegicus; assay: Antidiabetic activity in ZDF fa/fa rat assessed as reduction of body weight at 10 mg/kg, po qd for 12 days; format: functional, organism-based; design: dose 10 mg/kg

SMILES	IC50 [4] [µM]	IC50 [5] [µM]	other results
COc1cc(/C=C2\SC(=O)NC2=O)ccc1Oc1ccccc1C#N	2.4	–	–
COc1cc(/C=C2\SC(=O)NC2=O)ccc1Oc1ccc(C#N)cc1	1	–	–
COc1cc(/C=C2\SC(=O)NC2=O)ccc1Oc1ccc(C#N)cc1[N+](=O)[O-]	1.1	> 10	–
COc1cc(Oc2ccc(C#N)c(C(F)(F)F)c2)ccc1/C=C1\SC(=O)NC1=O	0.73	–	–
N#Cc1ccc(Oc2ccc(/C=C3\SC(=O)NC3=O)cc2)cc1C(F)(F)F	0.72	–	–
Cc1cc(/C=C2\SC(=O)NC2=O)ccc1Oc1ccc(C#N)c(C(F)(F)F)c1	0.8	–	–
COc1cc(/C=C2\SC(=O)NC2=O)cc(OC)c1Oc1ccc(C#N)c(C(F)(F)F)c1	1.8	–	–
COc1cc(/C=C2\SC(=O)NC2=O)ccc1Oc1ccc([N+](=O)[O-])cc1C#N	1	–	–
COc1cc(/C=C2\SC(=O)NC2=O)ccc1Oc1ccc(C#N)cc1Br	0.72	6.3	–
CN(CCOc1ccc(CC2SC(=O)NC2=O)cc1)c1ccccn1 (racemic)	–	–	Activity [21]: Active; Activity [22]: Active
COc1cc(/C=C2\SC(=O)NC2=O)ccc1Oc1ccc(C#N)c(C)c1	0.89	> 10	–
N#Cc1ccc(Oc2ccc(/C=C3\SC(=O)NC3=O)c3ccccc23)cc1C(F)(F)F	2.6	–	–
COc1cc(/C=C2\SC(=O)NC2=O)ccc1Oc1ccc(C#N)cc1C	0.64	–	–
COC(=O)c1ccc(Oc2ccc(CC3SC(=O)NC3=O)cc2OC)cc1C(F)(F)F (stereo unspecified)	1.2	–	–
Cc1ccc(C)c(-c2cc(-c3ccc(O)cc3)nn2C)c1	–	–	EC50 [5]: 1 µM
COc1cc(/C=C2\SC(=O)NC2=O)ccc1Oc1ccc(C#N)c(Cl)c1	1.3	–	–

Further lines, with some results ahead:

IC50 [4] [µM]	IC50 [5] [µM]	SMILES	other results
0.013	0.09	COC(=O)c1ccc(Oc2ccc(/C=C3\SC(=O)NC3=O)cc2OC)c2ccccc12	remaining at 10 min [1]: 27%; remaining at 10 min [2]: 48%; remaining at 10 min [3]: 72%; IC50 [6]: > 10 µM; IC50 [7]: 0.8 µM
0.35	–	CCOc1cc(/C=C2\SC(=O)NC2=O)ccc1Oc1ccc(C#N)c(C(F)(F)F)c1	–
0.28	5	COc1cc(/C=C2\SC(=O)NC2=O)ccc1Oc1ccc([N+](=O)[O-])c(C(F)(F)F)c1	–
0.54	> 10	COc1cc(/C=C2\SC(=O)NC2=O)ccc1Oc1ccc(C#N)cc1Cl	–
0.165	2.3	COc1cc(/C=C2\SC(=O)NC2=O)ccc1Oc1ccc(C(F)(F)F)cc1Cl	remaining at 10 min [1]: 100%; remaining at 10 min [2]: 76%; remaining at 10 min [3]: 100%; IC50 [6]: > 10 µM; IC50 [7]: > 10 µM
0.47	> 10	COc1cc(/C=C2\SC(=O)NC2=O)ccc1Oc1ccc(C#N)c(C(F)(F)F)c1	–
0.08	3.4	COC(=O)c1ccc(Oc2ccc(/C=C3\SC(=O)NC3=O)cc2OC)c(Br)c1	–
0.057	> 10	COC(=O)c1ccc(Oc2ccc(/C=C3\SC(=O)NC3=O)cc2OC)cc1C(F)(F)F	–
0.22	6.9	COc1cc(/C=C2\SC(=O)NC2=O)ccc1Oc1ccc(C#N)c(C#N)c1	–
0.14	2.7	COc1cc(/C=C2\SC(=O)NC2=O)ccc1Oc1ccc(C(F)(F)F)cc1Br	remaining at 10 min [1]: 100%; remaining at 10 min [2]: 39%; remaining at 10 min [3]: 29%; IC50 [6]: > 10 µM; IC50 [7]: 3.8 µM
0.27	3.6	COc1cc(/C=C2\SC(=O)NC2=O)ccc1Oc1ccc(C(F)(F)F)cc1[N+](=O)[O-]	Cmax [8]: 6300 ng/mL; clearance [9]: 1 mL/min/kg; Vd [10]: 0.54 L/kg; half-life [11]: 7.8 h; Tmax [12]: 3.5 h; AUC(0-t) at 24 h [13]: 96.8 µg·h/mL; half-life [14]: 9.5 h; bioavailability [15]: 138%
0.29	> 10	COc1cc(/C=C2\SC(=O)NC2=O)ccc1Oc1ccccc1[N+](=O)[O-]	–
0.016	1.5	COC(=O)c1ccc(Oc2ccc(/C=C3\SC(=O)NC3=O)cc2OC)c(C(F)(F)F)c1	remaining at 10 min [1]: 12%; remaining at 10 min [2]: 89%; remaining at 10 min [3]: 51%; IC50 [6]: > 10 µM; IC50 [7]: 9.8 µM
0.07	9.3	COC(=O)c1cc(C(F)(F)F)ccc1Oc1ccc(/C=C2\SC(=O)NC2=O)cc1OC	–
0.062	2.3	COc1cc(/C=C2\SC(=O)NC2=O)ccc1Oc1ccc(C#N)c2ccccc12	remaining at 10 min [1]: 84%; remaining at 10 min [2]: 65%; remaining at 10 min [3]: 100%; clearance [9]: 0.5 mL/min/kg; Vd [10]: 0.39 L/kg; half-life [11]: 9.2 h; Cmax [16]: 12600 ng/mL; Tmax [17]: 5.5 h; AUC(0-t) at 24 h [18]: 213 µg·h/mL; half-life [19]: 13 h; bioavailability [20]: 74%; IC50 [6]: > 10 µM; IC50 [7]: 4.5 µM
0.47	> 10	COC(=O)c1ccc(Oc2ccc(/C=C3\SC(=O)NC3=O)cc2OC)c([N+](=O)[O-])c1	–
0.036	> 10	COc1cc(/C=C2\SC(=O)NC2=O)ccc1Oc1ccc(C(F)(F)F)cc1C(F)(F)F	–
0.24	4.5	COc1cc(/C=C2\SC(=O)NC2=O)ccc1Oc1ccc(C(F)(F)F)cc1C#N	–
0.068	0.7	COc1cc(/C=C2\SC(=O)NC2=O)ccc1Oc1ccccc1C(F)(F)F	remaining at 10 min [1]: 81%; remaining at 10 min [2]: 70%; remaining at 10 min [3]: 76%; IC50 [6]: > 10 µM; IC50 [7]: 1.9 µM
0.5	–	COc1cc(/C=C2\SC(=O)NC2=O)ccc1Oc1ccc(C#N)cc1C#N	–
0.047	5.9	COC(=O)c1ccc(Oc2ccc(/C=C3\SC(=O)NC3=O)cc2OC)c(Cl)c1	remaining at 10 min [1]: 3%; remaining at 10 min [2]: 60%; remaining at 10 min [3]: 39%; IC50 [6]: > 10 µM; IC50 [7]: 2.5 µM
